Measured values: patent publication US20250302798A1, “STING INHIBITORS AND USE THEREOF” (CARMEL HAIFA UNIVERSITY ECONOMIC CORPORATION LTD., priority 2022, published 2025)
“Also recorded” adds a separate entry of the source.

Experiments:
[1] = tested on: liver fibrosis; assay: CCl4 mouse liver fibrosis model, liver Western blot; format: in vivo, C57BL/6 mice; details: CCl4 mice, 50 μM compound
Method: FIGS. 7A-7E include an image and graphs showing that compound 2.1 facilitates anti-fibrotic responses during the resolution of liver fibrosis. Mice were injected I.P. with the fibrosis-inducing agent CCl4 twice a week. After 28 days the mice were injected with vehicle (DMSO 0.4%), or 50 μM compound 2.1 ([…]). After 2 additional days, livers were collected and analyzed by western blot (7A) for their expression of collagen 1 and the M2 marker arginase 1, as well as β-actin (loading control). Alternatively, livers were analyzed for their mRNA expression of the IFN-responsive genes Ifitml (7B) and Ifitm3 (7C), or the anti-fibrotic protein Rgs2 (7D). Liver interstitial fluids were evaluated for the anti-fibrotic cytokine IL-10 (7E) levels. Results are representative from 4 (A) or mean±SEM of 8 mice (7B-7E). One-way ANOVA, and Tukey HSD test ** P≤0.01, **** P≤0.0001.
FIGS. 9A-9E include an image of Western blot analysis and vertical bar graphs showing that compound 2.1 reduces production of fibrosis-related factors. (9A) Western blot analysis showing that treatment with compound 2.1 (c2.1) in a liver fibrosis model results in: reduced production of Collagen 1 (Col-1), and of Arginase 1, and increased production of IFN-β. (9B-9E) Vertical bar graphs showing densitometric analysis of (9A) for Col-1 (9B), Arginase-1 (9C), IFN-β (9D), and alpha smooth muscle actin (αSMA; 9E). (9B-9E) results are mean±SEM. One-way ANOVA, and Tukey HSD test * P≤0.05, ** P≤0.01.
Male C57BL/6 mice were randomly assigned to experimental groups at approximately eight weeks old. Mice were injected I.P. with CCl4 (1 ml/kg) three times a week for six weeks with 0.2 ml of a 10 percent CCl4 in corn oil. Forty-eight hours before sacrifice, the vehicle group was injected I.P. with CCL4, while the treatment group was injected with CCl4 and 50 μM of compound 2.1. Then the liver was collected in a RIPA buffer for Western blot analysis.
Protein extracts of liver tissue were separated by sodium dodecyl sulfate polyacrylamide gel electrophoresis (SDS-PAGE), transferred to PVDF membranes (Bio-Rad Laboratories, Inc.), blocked with 5% skimmed milk powder, and immunoblotted with antibodies targeting: IFN-β, arginase 1, collagen 1, or β-actin. Then, the membranes were washed, incubated with the appropriate horseradish peroxidase (HRP)-conjugated secondary antibody, and developed using WesternBright™ ECL (Advansta Inc). Band density was quantified with FIJI ImageJ software.

[2] = tested on: STING-IFN-β axis; assay: Zymosan A peritonitis in vivo, macrophage cytokines and STING pathway Western blotting; design: species or system mice; details: 50 μM compound, 100 μl/mouse
Method: FIGS. 6A-6D include graphs and an image showing that compound 2.1 activates in vivo the STING-IFN-β axis and enhances biased cytokine production by macrophages. Mice were injected with zymosan A for 66 h. Twenty-four 24 post peritonitis initiation (PPI) the mice were injected with DMSO (0.4%), 4 mg/kg DMXAA or 50 μM compound 2.1 (100 μl/mouse). Macrophages were collected from the spleen (6A-6C), or peritoneum (6D) and incubated for 24 h with LPS (1 μg/ml) or vehicle (6A-6C) or lysed and analyzed by Western blotting immediately for the STING pathway (6D). Culture supernatants from incubated macrophages were analyzed by ELISA for the secretion of TNFα (6A), IL-10 (6B), and IL-6 (6C). Results are mean±SEM of 3 experiments (6A-6C) or representative blots. One-way ANOVA, and Tukey HSD test * P≤0.05, ** P≤0.01.

c1ccc(CSc2nnc(CCCCCCCCc3nnc(SCc4ccccc4)o3)o2)cc1 [Compound 2.1, 2-(benzylsulfanyl)-5-{8-[5-(benzylsulfanyl)-1,3,4-oxadiazol-2-yl]octyl}-1,3,4-oxadiazole]
Production of fibrosis-related factors [1]: reduces | Production of Arginase 1 in liver ([1]; Western blot): reduction; also recorded: reduced | Production of Collagen 1 in liver ([1]; Western blot): reduction; also recorded: reduced | Production of IFN-β in liver ([1]; Western blot): elevated production; also recorded: increased | Anti-fibrotic responses during the resolution of liver fibrosis ([1]; livers after 2 days): facilitates | STING-IFN-β axis in vivo ([2]; 24 h post peritonitis initiation, peritoneal macrophages): activates | Biased cytokine production by macrophages (TNFα, IL-10, IL-6) ([2]; spleen macrophages ex vivo ± LPS 1 μg/ml 24 h): enhances
